Results as given in patent publication US7348425B2, “Inhibitors of HCV replication” (Bristol-Myers Squibb Company, priority 2004, dated 2008).
Like-named read-outs stand apart in the source and are kept apart here.

Legend:
[1] = biological target: T1, HCV NS5B RdRp genotype 1b (Hepatitis C virus genotype 1b, UniProt Q9WMX2); experiment: Standard HCV NS5B RdRp enzyme assay; assay type: biochemical; conditions: standard method
T1 construct: The protein was expressed with an 18 amino acid C-terminal truncation to enhance the solubility; made in house; host or cells: E. coli BL21 (DE3), pET21a
T1 sequence (Q9WMX2 2420-2992): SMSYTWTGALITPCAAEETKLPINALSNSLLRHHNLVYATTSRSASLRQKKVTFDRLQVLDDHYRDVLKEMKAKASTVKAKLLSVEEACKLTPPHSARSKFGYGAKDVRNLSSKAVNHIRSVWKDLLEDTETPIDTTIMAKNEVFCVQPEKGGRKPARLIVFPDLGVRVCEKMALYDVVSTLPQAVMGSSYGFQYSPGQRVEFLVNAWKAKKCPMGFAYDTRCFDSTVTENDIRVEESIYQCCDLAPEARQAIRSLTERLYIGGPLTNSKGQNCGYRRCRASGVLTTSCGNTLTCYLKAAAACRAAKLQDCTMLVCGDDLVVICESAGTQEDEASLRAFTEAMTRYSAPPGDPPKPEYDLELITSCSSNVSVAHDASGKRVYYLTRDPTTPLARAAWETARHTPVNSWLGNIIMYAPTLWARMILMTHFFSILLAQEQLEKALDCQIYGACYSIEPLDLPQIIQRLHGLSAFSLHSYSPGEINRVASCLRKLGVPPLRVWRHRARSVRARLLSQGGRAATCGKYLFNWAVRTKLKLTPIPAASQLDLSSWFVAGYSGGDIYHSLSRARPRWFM
Description: HCVNS5B RdRp cloning, expression, and purification. The cDNA encoding the NS5B protein of HCV, genotype 1b, was cloned into the pET21a expression vector. The protein was expressed with an 18 amino acid C-terminal truncation to enhance the solubility. The E. coli competent cell line BL21 (DE3) was used for expression of the protein. Cultures were grown at 37° C. for ˜4 hours until the cultures reached an optical density of 2.0 at 600 nm. The cultures were cooled to 20° C. and induced with 1 mM IPTG. Fresh ampicillin was added to a final concentration of 50 μg/ml and the cells were grown overnight at 20° C.
Cell pellets (3 L) were lysed for purification to yield 15-24 mgs of purified NS5B. The lysis buffer consisted of 20 mM Tris-HCl, pH 7.4, 500 mM NaCl, 0.5% triton X-100, 1 mM DTT, 1 mM EDTA, 20% glycerol, 0.5 mg/ml lysozyme, 10 mM MgCl2, 15 ug/ml deoxyribonuclease I, and Complete TM protease inhibitor tablets (Roche). After addition of the lysis buffer, frozen cell pellets were resuspended using a tissue homogenizer. To reduce the viscosity of the sample, aliquots of the lysate were sonicated on ice using a microtip attached to a Branson sonicator. The sonicated lysate was centrifuged at 100,000×g for 1 hr at 4° C. and filtered through a 0.2 μm filter unit (Corning).
The protein was purified using three sequential chromatography steps: Heparin sepharose CL-6B, polyU sepharose 4B, and Hitrap SP sepharose (Pharmacia). The chromatography buffers were identical to the lysis buffer but contained no lysozyme, deoxyribonuclease I, MgCl2 or protease inhibitor and the NaCl concentration of the buffer was adjusted according to the requirements for charging the protein onto the column. Each column was eluted with a NaCl gradient which varied in length from 5-50 column volumes depending on the column type. After the final chromatography step, the resulting purity of the enzyme is >90% based on SDS-PAGE analysis. The enzyme was aliquoted and stored at −80° C.
Standard HCV NS5B RdRp enzyme assay. HCV RdRp genotype Ib assays were run in a final volume of 60 μl in 96 well plates (Costar 3912). The assay buffer is composed of 20 mM Hepes, pH 7.5, 2.5 mM KCl, 2.5 mM MgCl2, 1 mM DTT, 1.6 U RNAse inhibitor (Promega N2515), 0.1 mg/ml BSA (Promega R3961), and 2% glycerol. All compounds were serially diluted (3-fold) in DMSO and diluted further in water such that the final concentration of DMSO in the assay was 2%. HCV RdRp genotype 1b enzyme was used at a final concentration of 28 nM. A polyA template was used at 6 nM, and a biotinylated oligo-dT12 primer was used at 180 nM final concentration. Template was obtained commercially (Amersham 27-4110). Biotinylated primer was prepared by Sigma Genosys. ^3H-UTP was used at 0.6 μCi (0.29 μM total UTP). Reactions were initiated by the addition of enzyme, incubated at 30° C. for 60 min, and stopped by adding 25 μl of 50 mM EDTA containing SPA beads (4 μg/μl, Amersham RPNQ 0007). Plates were read on a Packard Top Count NXT after >1 hr incubation at room temperature.
The IC50 values for compounds were determined using seven different [I]. IC50 values were calculated from the inhibition using the formula y=A+((B−A)/(1+((C/x)^D))). FRET Assay Preparation. To perform the HCV FRET screening assay, 96-well cell culture plates were used. The FRET peptide (Anaspec, Inc.) (Taliani et al., Anal. Biochem. 240:60-67 (1996), hereby incorporated by reference in its entirety) contains a fluorescence donor, EDANS, near one end of the peptide and an acceptor, DABCYL, near the other end. The fluorescence of the peptide is quenched by […] resonance energy transfer (RET) between the donor and the acceptor, but as the NS3 protease cleaves the peptide the products are released from RET quenching and the fluorescence of the donor becomes apparent. […]

[2] = system: HCV replicon; experiment: HCV replicon luciferase assay; assay type: cell-based, Hepatitis C virus; conditions: luciferase method, read-out: EC50
In short: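 Replicon cells, some carrying a Renilla luciferase reporter, were incubated with titrated compound at 37 °C; Alamar blue measured cytotoxicity, followed by a kinetic FRET peptide read (340/490 nm) or Dual-Glo luciferase. Activity was normalized to untreated controls after subtracting background from high-dose protease inhibitor wells; EC50 was the concentration giving 50% signal reduction.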

| SMILES | IC50 [1] [nM] | EC50 ([2]; Hepatitis C virus) [nM] | EC50 [2] [nM] |
| --- | --- | --- | --- |
| O=C(O)c1ccc2c(C3CCCCC3)c3n(c2c1)CC=Cc1ncccc1-3 | > 1000 | 1000 to 10000 |  |
| O=C(O)c1ccc2c(C3CCCCC3)c3n(c2c1)CCCc1ncccc1-3 | 100 to 1000 | 100 to 1000 |  |
| CN(C)C(=O)C1Cc2ccccc2-c2c(C3CCCCC3)c3ccc(C(=O)O)cc3n2C1 (centres unmarked) | 100 to 1000 | 100 to 1000 |  |
| O=C(O)c1ccc2c(C3CCCCC3)c3n(c2c1)CC(C(=O)NCCO)Cc1ccccc1-3 (centres unmarked) | 100 to 1000 | 100 to 1000 |  |
| CN(C)CCNC(=O)C1Cc2ccccc2-c2c(C3CCCCC3)c3ccc(C(=O)O)cc3n2C1 (centres unmarked) | 100 to 1000 | 100 to 1000 |  |
| CN(C)CCNC(=O)C1Cc2ccccc2-c2c(C3CCCCC3)c3ccc(C(=O)NS(=O)(=O)N(C)C)cc3n2C1 (centres unmarked) | 100 to 1000 | 100 to 1000 |  |
| CN1CCN(C(=O)C2Cc3ccccc3-c3c(C4CCCCC4)c4ccc(C(=O)O)cc4n3C2)CC1 (centres unmarked) | 100 to 1000 | 100 to 1000 |  |
| O=C(O)c1ccc2c(C3CCCCC3)c3n(c2c1)CC(C(=O)N1CCC(N2CCCC2)CC1)Cc1ccccc1-3 (centres unmarked) | 100 to 1000 | 100 to 1000 |  |
| COC(=O)c1ccc2c(C3CCCCC3)c3n(c2c1)CCCc1ccccc1-3 [Example 2, Methyl 13-cyclohexyl-6,7-dihydro-5H-indolo[2,1-a][2]benzazepine-10-carboxylate] | > 1000 | > 10000 |  |
| O=C(O)c1ccc2c(C3CCCCC3)c3n(c2c1)CCCc1ccccc1-3 [Example 3, 13-cyclohexyl-6,7-dihydro-5H-indolo[2,1-a][2]benzazepine-10-carboxylic acid] | 100 to 1000 | 100 to 1000 |  |
| COC(=O)c1ccc2c(C3CCCCC3)c3n(c2c1)Cc1ccccc1-3 [Example 6, Methyl 11-cyclohexyl-6H-isoindolo[2,1-a]indole-3-carboxylate] | > 1000 | > 10000 |  |
| O=C(O)c1ccc2c(C3CCCCC3)c3n(c2c1)Cc1ccccc1-3 [Example 7] | 100 to 1000 | > 10000 |  |
| COC(=O)c1ccc2c(C3CCCCC3)c3n(c2c1)C(O)c1ccccc1-3 (centres unmarked) [Example 8] | > 1000 | 1000 to 10000 |  |
| COC(=O)c1ccc2c(C3CCCCC3)c3n(c2c1)CC(=O)Nc1cccnc1-3 [Example 14, Methyl 13-cyclohexyl-6,7-dihydro-6-oxo-5H-pyrido[3′,2′:5,6][1,4]diazepino[1,7-a]indole-10-carboxylate] | > 1000 | > 10000 |  |
| O=C1Cn2c(c(C3CCCCC3)c3ccc(C(=O)O)cc32)-c2ncccc2N1 [Example 15, 13-cyclohexyl-6,7-dihydro-6-oxo-5H-pyrido[3′,2′:5,6][1,4]diazepino[1,7-a]indole-10-carboxylic acid] | 100 to 1000 | 1000 to 10000 |  |
| CCOC(=O)c1cc2ccccc2c2c(C3CCCCC3)c3ccc(C(=O)OC)cc3n12 [Example 16, 6-ethyl-9-methyl-12-cyclohexyl-indolo[2,1-a]isoquinoline-6,9-dicarboxylic acid] | > 1000 | > 10000 |  |
| O=C(O)c1ccc2c(C3CCCCC3)c3n(c2c1)CC=Cc1ccccc1-3 [Example 18, 13-cyclohexyl-7H-indolo[2,1-a][2]benzazepine-10-carboxylic acid] | > 1000 | 1000 to 10000 |  |

| SMILES | IC50 [1] [nM] | EC50 ([2]; Hepatitis C virus) [nM] | EC50 [2] [nM] |
| --- | --- | --- | --- |
| CN(C)S(=O)(=O)NC(=O)c1ccc2c(C3CCCCC3)c3n(c2c1)CC=Cc1ccccc1-3 [Example 19, 13-cyclohexyl-N-(dimethylaminosulfonyl)-7H-indolo[2,1-a][2]benzazepine-10-carboxamide] | 100 to 1000 | 100 to 1000 |  |
| COC(=O)c1ccc2c(C3CCCCC3)c3n(c2c1)CC(=O)Nc1ccccc1-3 [Example 20, Methyl 13-cyclohexyl-6,7-dihydro-6-oxo-5H-indolo[1,2-d][1,4]benzodiazepine-10-carboxylate] | > 1000 | 1000 to 10000 |  |
| O=C1Cn2c(c(C3CCCCC3)c3ccc(C(=O)O)cc32)-c2ccccc2N1 [Example 21, 13-cyclohexyl-6,7-dihydro-6-oxo-5H-indolo[1,2-d][1,4]benzodiazepine-10-carboxylic acid] | 100 to 1000 | 100 to 1000 |  |
| CN1C(=O)Cn2c(c(C3CCCCC3)c3ccc(C(=O)O)cc32)-c2ccccc21 [Example 22, 13-cyclohexyl-6,7-dihydro-6-oxo-5-methyl-5H-indolo[1,2-d][1,4]benzodiazepine-10-carboxylic acid] | 100 to 1000 | 100 to 1000 |  |
| O=C(O)CCCc1nc(C2(NC(=O)c3ccc4c(C5CCCCC5)c5n(c4c3)CC=Cc3ccccc3-5)CCCC2)no1 [Example 23, 3-[1-[[(13-cyclohexyl-7H-indolo[2,1-a][2]benzazepin-10-yl)carbonyl]amino]cyclopentyl]-1,2,4-oxadiazole-5-butanoic acid] | > 1000 | 100 to 1000 |  |
| O=C(O)c1ccc(-c2nc(C3(NC(=O)c4ccc5c(C6CCCCC6)c6n(c5c4)CC=Cc4ccccc4-6)CCCC3)no2)cc1 [Example 24] | > 1000 | 100 to 1000 |  |
| O=C(O)/C=C/c1ccc(-c2nc(C3(NC(=O)c4ccc5c(C6CCCCC6)c6n(c5c4)CC=Cc4ccccc4-6)CCCC3)no2)cc1 [Example 25] | > 1000 | 100 to 1000 |  |
| O=C(O)/C=C/c1cccc(-c2nc(C3(NC(=O)c4ccc5c(C6CCCCC6)c6n(c5c4)CC=Cc4ccccc4-6)CCCC3)no2)c1 [Example 26] | > 1000 | 100 to 1000 |  |
| O=C(O)/C=C/c1ccc(NC(=O)C2(NC(=O)c3ccc4c(C5CCCCC5)c5n(c4c3)CCCc3ccccc3-5)CCNCC2)cc1 [Example 29, 2-propenoic acid, 3-[4-[[[4-[[(13-cyclohexyl-6,7-dihydro-5H-indolo[2,1-a][2]benzazepin-10-yl)carbonyl]amino]-4-piperidinyl]carbonyl]amino]phenyl]-, (2E)-] | 100 to 1000 | < 100 |  |
| COC(=O)/C=C/c1ccc(NC(=O)C2(NC(=O)c3ccc4c(C5CCCCC5)c5n(c4c3)CC(=O)Nc3cccnc3-5)CCCC2)cc1 [drawing 98] | > 1000 | < 100 |  |
| O=C(O)c1ccc2c(C3CCCCC3)c3n(c2c1)CC(C(=O)N1CCOCC1)Cc1ccccc1-3 (centres unmarked) [drawing 113] | 100 to 1000 |  | 100 to 1000 |
| O=C(O)c1ccc2c(C3CCCCC3)c3n(c2c1)CC(C(=O)N1CCOCC1)Cc1ccccc1-3 (centres unmarked) [drawing 114] | > 1000 |  | 1000 to 10000 |
| O=C(O)c1ccc2c(C3CCCCC3)c3n(c2c1)CC(C(=O)N1CCOCC1)Cc1ccccc1-3 (centres unmarked) [drawing 115] | 100 to 1000 |  | 100 to 1000 |
| O=C(O)c1ccc2c(C3CCCCC3)c3n(c2c1)CC(C(=O)N1CCCCC1)Cc1ccccc1-3 (centres unmarked) [drawing 116] | 100 to 1000 |  | 100 to 1000 |
| O=C(O)c1ccc2c(C3CCCCC3)c3n(c2c1)CC(C(=O)N1CCCCC1)Cc1ccccc1-3 (centres unmarked) [drawing 117] | > 1000 |  | 1000 to 10000 |
| O=C(O)c1ccc2c(C3CCCCC3)c3n(c2c1)CC(C(=O)N1CCCCC1)Cc1ccccc1-3 (centres unmarked) [drawing 118] | 100 to 1000 |  | 100 to 1000 |
| O=C(O)c1ccc2c(C3CCCCC3)c3n(c2c1)CC(C(=O)N1CCCC(O)C1)Cc1ccccc1-3 (centres unmarked) [drawing 119] | 100 to 1000 |  | 100 to 1000 |
